The results in this text go back to PMC12594171, “DKK3-LRP1 complex and a chemical inhibitor regulate Aβ clearance in models of Alzheimer’s disease” (Science Advances, 2025).

For the assay, the target named is low-density lipoprotein receptor-related protein 1 (LRP1), minireceptor mLRPIV (Homo sapiens, UniProt Q07954). In words: SPR (Biacore T200, mLRPIV immobilized on CM5 chip); also inhibits DKK3 binding to mLRPIV by SPR, IC50 […]. A general note: Surface plasmon resonance follows binding to a sensor surface in real time, without labels.
Sequence of low-density lipoprotein receptor-related protein 1 (LRP1), minireceptor mLRPIV (Q07954 3331-3778 limits assumed): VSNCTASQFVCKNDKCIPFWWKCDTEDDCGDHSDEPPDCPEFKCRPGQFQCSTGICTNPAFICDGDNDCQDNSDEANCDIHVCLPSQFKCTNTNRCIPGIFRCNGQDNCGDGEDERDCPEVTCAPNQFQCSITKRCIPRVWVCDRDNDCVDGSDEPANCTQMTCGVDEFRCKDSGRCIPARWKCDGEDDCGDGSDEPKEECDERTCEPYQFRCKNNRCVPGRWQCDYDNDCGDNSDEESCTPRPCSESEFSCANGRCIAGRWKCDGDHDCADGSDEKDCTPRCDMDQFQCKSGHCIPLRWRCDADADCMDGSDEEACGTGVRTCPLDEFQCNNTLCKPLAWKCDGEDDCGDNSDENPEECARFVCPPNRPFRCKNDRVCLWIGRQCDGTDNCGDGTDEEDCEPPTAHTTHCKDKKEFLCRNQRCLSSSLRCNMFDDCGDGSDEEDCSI

SMILES strings stand for the structures.

A word on the Kd: it is the equilibrium constant for the complex coming apart. Low values mean higher affinity, high ones lower affinity. `Cc1nn(-c2ccc(F)cc2)c(C)c1CNC1CCN(C2CC2)CC1` [SJ-300]: the dissociation constant (Kd) came to 7.9 µM.
